Data reported in ChEMBL document CHEMBL1156593, “Alkamides from the fruits of Piper longum and Piper nigrum displaying potent cell adhesion inhibition” (Bioorg Med Chem Lett, 2008).
The source made the active and inactive calls. The rule behind the calls is not given here.

Key:
[1] = target: Intercellular adhesion molecule 1 (Homo sapiens) (UniProt P05362); assay: Inhibition of sICAM1/LFA1 interaction-mediated human THP1 cell adhesion at 25 ug/mL after 1 hr by ELISA; conditions: THP-1
[2] = target: Intercellular adhesion molecule 1 (Homo sapiens) (UniProt P05362); assay: Inhibition of sICAM1/LFA1 interaction-mediated human THP1 cell adhesion at 12.50 ug/mL after 1 hr by ELISA; type: cell-based; conditions: THP-1
[3] = target: Intercellular adhesion molecule 1 (Homo sapiens) (UniProt P05362); assay: Inhibition of sICAM1/LFA1 interaction-mediated human THP1 cell adhesion at 6.25 ug/mL after 1 hr by ELISA; type: cell-based; conditions: THP-1
[4] = target: Intercellular adhesion molecule 1 (Homo sapiens) (UniProt P05362); assay: Inhibition of sICAM1/LFA1 interaction-mediated human THP1 cell adhesion at 3.13 ug/mL after 1 hr by ELISA; type: cell-based; conditions: THP-1
THP-1 = assay: Cytotoxicity against human THP1 cells assessed as cell viability at 3.13 to 25.00 ug/mL by MTT assay; type: cell-based
Mus musculus = species: Mus musculus; assay: Antiinflammatory activity in mouse; type: functional, organism-based

Chain of Intercellular adhesion molecule 1 (Homo sapiens) (P05362 whole entry): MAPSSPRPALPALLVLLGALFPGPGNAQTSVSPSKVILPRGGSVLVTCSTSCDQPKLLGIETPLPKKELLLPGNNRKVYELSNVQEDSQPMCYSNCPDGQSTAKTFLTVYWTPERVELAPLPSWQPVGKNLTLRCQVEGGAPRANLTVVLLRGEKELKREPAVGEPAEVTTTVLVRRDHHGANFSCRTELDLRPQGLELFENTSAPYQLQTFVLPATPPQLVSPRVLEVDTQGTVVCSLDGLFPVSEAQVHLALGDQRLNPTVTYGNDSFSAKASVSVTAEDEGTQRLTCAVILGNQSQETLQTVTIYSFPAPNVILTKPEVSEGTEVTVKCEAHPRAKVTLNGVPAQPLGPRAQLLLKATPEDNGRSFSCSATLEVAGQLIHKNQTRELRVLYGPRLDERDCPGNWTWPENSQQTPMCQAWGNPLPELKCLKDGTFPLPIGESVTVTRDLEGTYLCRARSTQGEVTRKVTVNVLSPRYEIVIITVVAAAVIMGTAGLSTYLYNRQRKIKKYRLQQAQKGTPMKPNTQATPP

Row | inhibition [1] | inhibition [2] | inhibition [3] | Activity [4] | Activity [1] | inhibition [4] | SMILES | Activity (THP-1) | Activity (Mus musculus)
1 | 92.1% | 58.4% | 13.1% | inactive |  |  | O=C(/C=C/C=C\CC/C=C/c1ccc2c(c1)OCO2)N1CCCCC1 | Non-toxic | Active
2 |  | 61.4% | 37.7% | inactive | inactive |  | CC[C@H](C)C(=O)O[C@H]1C[C@@H](C)C=C2C=C[C@H](C)[C@H](CC[C@@H]3C[C@@H](O)CC(=O)O3)[C@H]21 |  | 
3 | 73.4% | 57.7% | 52.5% |  |  | 30.1% | O=C(/C=C/C=C/CC/C=C/c1ccc2c(c1)OCO2)N1CCCCC1 [DEHYDROPIPERNOLINE] | Non-toxic | Active
4 | 80.6% | 46.4% | 16.5% |  |  | 11.3% | CCCCC/C=C/C=C/C(=O)NCC(C)C [PELLITORIN] | Non-toxic | Active
5 | 42.6% | 26.9% | 20.9% |  |  | 15.6% | CC(C)CNC(=O)/C=C/CCCCCC/C=C/c1ccc2c(c1)OCO2 [PIPERCHABAMIDE D] | Non-toxic | Active
6 | 93.8% | 70.2% | 36.8% |  |  | 12.5% | O=C(/C=C/CCCC/C=C/c1ccc2c(c1)OCO2)N1CCCCC1 [PIPERNONALINE] | Non-toxic | Active
7 | 67.6% | 46.5% | 28.5% |  |  | 16.2% | O=C(CCCCCC/C=C/c1ccc2c(c1)OCO2)N1CCCCC1 [PIPERROLEIN B] | Non-toxic | Active
8 | 36% | 35.9% | 29.9% | inactive |  |  | CC(C)CNC(=O)/C=C/CCCC/C=C/c1ccc2c(c1)OCO2 [RETROFRACTAMIDE C] | Non-toxic | Active

Row | SMILES | inhibition [1] | inhibition [2] | inhibition [3] | Activity [4] | Activity [1] | inhibition [4] | Activity (THP-1) | Activity (Mus musculus)
9 | CC(C)CNC(=O)/C=C/C=C/CCCCCC/C=C/c1ccc2c(c1)OCO2 [GUINEENSINE] | 36.8% | 31.7% | 14.9% | inactive |  |  | Non-toxic | Active
